{"source": "patent US10344060B2", "about": "(priority 2013, dated 2019)", "key": {"[1]": {"tested_on": "TTX-sensitive Nav channels in Sprague Dawley rat DRG neuron"}, "[2]": {"tested_on": "TTX-sensitive Nav channels in mouse DRG neuron", "settings": "for 1.x/1.7: partially inactivated, mTTX-S / hNav1.7"}, "in vivo [3]": {"experiment": "in vivo", "settings": "male, CD-1, mouse, sc, 2 mg/kg"}, "hNav1.7 [4]": {"biological_target": "T1, hNav1.7 (Homo sapiens, UniProt Q15858)", "T1 sequence (Q15858 whole entry)": "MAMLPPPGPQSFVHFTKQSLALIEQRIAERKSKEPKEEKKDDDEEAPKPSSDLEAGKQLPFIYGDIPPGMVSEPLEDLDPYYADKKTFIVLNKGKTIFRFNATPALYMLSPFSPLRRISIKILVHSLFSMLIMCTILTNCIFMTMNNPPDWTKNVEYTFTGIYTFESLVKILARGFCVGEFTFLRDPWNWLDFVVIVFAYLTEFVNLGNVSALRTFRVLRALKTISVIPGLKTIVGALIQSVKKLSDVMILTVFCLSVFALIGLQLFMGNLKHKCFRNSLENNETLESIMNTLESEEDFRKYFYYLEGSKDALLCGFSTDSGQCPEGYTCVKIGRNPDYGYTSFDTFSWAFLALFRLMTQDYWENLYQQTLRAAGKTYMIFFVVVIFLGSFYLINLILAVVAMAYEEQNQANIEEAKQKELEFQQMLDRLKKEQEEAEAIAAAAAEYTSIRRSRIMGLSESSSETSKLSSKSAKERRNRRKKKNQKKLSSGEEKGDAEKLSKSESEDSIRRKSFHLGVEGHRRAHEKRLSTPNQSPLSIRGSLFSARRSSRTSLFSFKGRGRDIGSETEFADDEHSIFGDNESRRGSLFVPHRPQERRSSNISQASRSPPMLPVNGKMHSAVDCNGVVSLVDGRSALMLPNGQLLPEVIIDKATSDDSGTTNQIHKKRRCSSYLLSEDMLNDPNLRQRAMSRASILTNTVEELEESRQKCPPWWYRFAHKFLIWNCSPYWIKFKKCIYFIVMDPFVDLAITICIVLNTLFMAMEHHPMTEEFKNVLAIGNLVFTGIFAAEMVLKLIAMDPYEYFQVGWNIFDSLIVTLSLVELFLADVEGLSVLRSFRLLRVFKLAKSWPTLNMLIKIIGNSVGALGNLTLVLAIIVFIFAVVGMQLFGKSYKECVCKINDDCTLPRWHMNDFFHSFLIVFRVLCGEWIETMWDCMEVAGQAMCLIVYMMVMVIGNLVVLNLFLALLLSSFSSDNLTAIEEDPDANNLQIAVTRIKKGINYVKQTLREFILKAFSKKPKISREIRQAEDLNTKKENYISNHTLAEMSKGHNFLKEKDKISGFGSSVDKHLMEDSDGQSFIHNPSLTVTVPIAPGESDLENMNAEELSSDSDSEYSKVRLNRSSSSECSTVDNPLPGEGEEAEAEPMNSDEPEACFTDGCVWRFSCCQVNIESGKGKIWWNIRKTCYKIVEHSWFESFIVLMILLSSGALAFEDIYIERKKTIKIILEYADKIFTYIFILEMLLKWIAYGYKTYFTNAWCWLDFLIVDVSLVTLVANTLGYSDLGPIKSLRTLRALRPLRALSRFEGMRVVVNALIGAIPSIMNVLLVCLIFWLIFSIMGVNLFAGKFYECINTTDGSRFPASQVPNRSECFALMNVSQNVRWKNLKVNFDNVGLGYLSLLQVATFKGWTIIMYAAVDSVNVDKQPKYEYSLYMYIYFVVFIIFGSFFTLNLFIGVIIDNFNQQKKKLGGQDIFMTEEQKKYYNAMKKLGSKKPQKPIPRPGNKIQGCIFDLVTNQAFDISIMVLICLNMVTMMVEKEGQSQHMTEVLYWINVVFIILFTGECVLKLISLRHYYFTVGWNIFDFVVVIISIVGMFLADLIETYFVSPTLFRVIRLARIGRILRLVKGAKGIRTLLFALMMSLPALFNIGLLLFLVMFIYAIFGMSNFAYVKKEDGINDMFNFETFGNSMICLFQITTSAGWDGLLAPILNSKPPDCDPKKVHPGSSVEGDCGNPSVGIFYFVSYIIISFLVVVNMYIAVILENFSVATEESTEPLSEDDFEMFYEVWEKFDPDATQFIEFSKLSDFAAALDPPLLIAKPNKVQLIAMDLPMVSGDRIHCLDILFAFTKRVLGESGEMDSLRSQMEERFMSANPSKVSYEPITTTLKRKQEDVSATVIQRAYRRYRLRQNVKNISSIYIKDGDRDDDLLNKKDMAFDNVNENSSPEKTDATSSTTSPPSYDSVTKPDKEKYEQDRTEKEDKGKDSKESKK", "experiment": "cell-based", "format": "cell-based", "settings": "read-out: PX hNav1.7 Tonic IC50"}, "in vivo [5]": {"experiment": "in vivo", "settings": "female, Sprague-Dawley, rat, sc"}, "[6]": {"settings": "CD-1 male mouse, 2 mg/kg s.c."}, "[7]": {"settings": "for mean Cmax over the rat DRG Nav1.7: Sprague-Dawley rats"}, "hNav1.5": {"biological_target": "hNav1.5 (Homo sapiens, UniProt Q14524)", "experiment": "cell-based", "settings": "Table 12; ratio of PX tonic IC50 values"}, "hNav1.6": {"biological_target": "hNav1.6 (Homo sapiens, UniProt Q9UQD0)", "sequence (Q9UQD0 whole entry)": "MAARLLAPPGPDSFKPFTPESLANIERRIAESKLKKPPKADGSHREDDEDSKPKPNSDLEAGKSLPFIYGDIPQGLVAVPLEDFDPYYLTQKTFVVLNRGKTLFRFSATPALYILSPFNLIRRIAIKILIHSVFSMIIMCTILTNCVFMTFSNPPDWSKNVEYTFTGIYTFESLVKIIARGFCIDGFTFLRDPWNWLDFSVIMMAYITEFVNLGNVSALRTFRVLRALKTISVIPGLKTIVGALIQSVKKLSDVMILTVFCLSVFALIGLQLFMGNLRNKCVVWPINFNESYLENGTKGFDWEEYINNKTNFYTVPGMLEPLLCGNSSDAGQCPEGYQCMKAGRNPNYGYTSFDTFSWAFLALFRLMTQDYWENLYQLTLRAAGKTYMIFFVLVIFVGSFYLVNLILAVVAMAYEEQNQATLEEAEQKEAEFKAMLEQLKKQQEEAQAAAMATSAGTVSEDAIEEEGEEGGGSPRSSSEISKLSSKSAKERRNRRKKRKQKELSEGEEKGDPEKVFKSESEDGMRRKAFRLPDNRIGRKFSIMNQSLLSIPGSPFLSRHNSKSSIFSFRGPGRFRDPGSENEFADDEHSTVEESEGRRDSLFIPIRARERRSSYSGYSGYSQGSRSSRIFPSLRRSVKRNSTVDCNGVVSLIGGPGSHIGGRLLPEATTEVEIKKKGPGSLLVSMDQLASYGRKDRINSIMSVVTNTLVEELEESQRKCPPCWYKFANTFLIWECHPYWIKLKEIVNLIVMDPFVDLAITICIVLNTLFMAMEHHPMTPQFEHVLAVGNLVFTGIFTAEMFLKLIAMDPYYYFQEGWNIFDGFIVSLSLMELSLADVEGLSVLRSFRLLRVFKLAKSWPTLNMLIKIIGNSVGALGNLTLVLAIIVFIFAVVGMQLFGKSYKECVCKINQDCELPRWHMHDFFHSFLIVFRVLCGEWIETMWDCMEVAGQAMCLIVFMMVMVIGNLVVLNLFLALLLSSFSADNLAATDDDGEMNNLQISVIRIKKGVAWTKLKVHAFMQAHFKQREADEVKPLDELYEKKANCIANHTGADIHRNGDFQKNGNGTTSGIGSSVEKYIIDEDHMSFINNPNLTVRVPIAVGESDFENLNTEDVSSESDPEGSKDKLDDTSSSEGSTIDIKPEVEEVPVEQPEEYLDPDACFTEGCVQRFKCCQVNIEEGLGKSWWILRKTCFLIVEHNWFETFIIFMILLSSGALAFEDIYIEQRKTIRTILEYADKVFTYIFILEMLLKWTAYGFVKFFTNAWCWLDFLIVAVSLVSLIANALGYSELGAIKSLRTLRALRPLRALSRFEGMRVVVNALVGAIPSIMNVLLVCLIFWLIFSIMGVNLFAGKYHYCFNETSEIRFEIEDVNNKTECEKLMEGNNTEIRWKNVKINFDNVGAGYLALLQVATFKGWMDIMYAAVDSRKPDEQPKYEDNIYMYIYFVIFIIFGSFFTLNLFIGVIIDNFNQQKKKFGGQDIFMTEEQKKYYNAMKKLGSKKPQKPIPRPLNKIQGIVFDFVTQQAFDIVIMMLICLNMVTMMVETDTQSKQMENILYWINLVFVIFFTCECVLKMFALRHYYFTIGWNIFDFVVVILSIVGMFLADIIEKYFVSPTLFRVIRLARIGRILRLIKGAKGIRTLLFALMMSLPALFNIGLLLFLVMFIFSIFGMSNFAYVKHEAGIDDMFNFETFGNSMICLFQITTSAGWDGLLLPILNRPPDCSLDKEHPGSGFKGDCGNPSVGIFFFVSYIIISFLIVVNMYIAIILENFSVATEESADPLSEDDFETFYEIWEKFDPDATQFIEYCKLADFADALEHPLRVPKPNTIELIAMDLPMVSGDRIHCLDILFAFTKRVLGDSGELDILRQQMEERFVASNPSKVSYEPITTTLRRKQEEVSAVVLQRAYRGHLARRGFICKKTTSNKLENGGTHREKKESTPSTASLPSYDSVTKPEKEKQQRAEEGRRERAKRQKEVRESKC", "experiment": "cell-based", "format": "cell-based", "settings": "Table 15; for Nav1.6/Nav1.7: ratio of PX tonic IC50 values; for IC50: read-out: PX hNav1.6 Tonic IC50"}, "hNav1.7 [8]": {"biological_target": "T1, hNav1.7", "experiment": "cell-based", "format": "cell-based", "settings": "for block of hNav1.7 current, in words: 100 pM; for 1.x/1.7: hNav1.7 / hNav1.7"}, "hNav1.4": {"biological_target": "hNav1.4 (Homo sapiens, UniProt P35499)", "experiment": "cell-based", "format": "cell-based", "settings": "Table 12"}, "male CD-1 mice": {"tested_on": "male CD-1 mice", "settings": "mouse, in vivo"}}, "note": "Several values for one entry are separate records, joined by “and”; a condition that tells them apart may be missing. Identical values can stand only once. Entries after “also recorded” stand apart in the source; their conditions may differ. Like-named read-outs stand apart in the source and are kept apart here."}
{"smiles": "C#CC[C@@H]1NC(=O)[C@@H]2CSSC[C@H](NC(=O)[C@H](Cc3ccc(O)cc3)NC(=O)[C@@H](N)CC#N)C(=O)N[C@@H](CCC(N)=O)C(=O)N[C@@H](CCCCN)C(=O)N[C@@H](Cc3c[nH]c4ccccc34)C(=O)N[C@@H](CCCC)C(=O)N[C@@H](Cc3c[nH]c4ccccc34)C(=O)N[C@@H]([C@@H](C)O)C(=O)N[C@H]3CSSC[C@H](NC(=O)[C@H](CCCNC(=N)N)NC(=O)[C@H](CC(C)C)NC(=O)CNC1=O)C(=O)N[C@@H](CCCCN)C(=O)N[C@@H](CC(C)C)C(=O)N[C@@H](Cc1c[nH]c4ccccc14)C(=O)N[C@H](C(=O)N[C@@H](CCCNC(=N)N)C(=O)N[C@@H](CCCCN)C(=O)N[C@@H](CCC(=O)O)C(=O)N[C@H](C(N)=O)[C@@H](C)CC)CSSC[C@H](NC(=O)[C@H](C)NC(=O)[C@H](CCCNC(=N)N)NC(=O)[C@H](CCCCN)NC(=O)[C@H](CO)NC(=O)[C@H](CC(=O)O)NC3=O)C(=O)N2", "note": "[CyA-[Nle6,Glu28]JzTx-V(1-29)]", "values": [{"measurement": "IC50", "setting": "[1]", "value": 9.25, "unit": "nM"}]}
{"smiles": "C#CC[C@@H]1NC(=O)[C@@H]2CSSC[C@H](NC(=O)[C@H](Cc3ccc(O)cc3)NC(=O)[C@@H](N)CC#N)C(=O)N[C@@H](CCC(N)=O)C(=O)N[C@@H](CCCCN)C(=O)N[C@@H](Cc3c[nH]c4ccccc34)C(=O)N[C@@H](CCCC)C(=O)N[C@@H](Cc3c[nH]c4ccccc34)C(=O)N[C@@H]([C@@H](C)O)C(=O)N[C@H]3CSSC[C@H](NC(=O)[C@H](CCCNC(=N)N)NC(=O)[C@H](CC(C)C)NC(=O)CNC1=O)C(=O)N[C@@H](CCCCN)C(=O)N[C@@H](CC(C)C)C(=O)N[C@@H](Cc1c[nH]c4ccccc14)C(=O)N[C@H](C(=O)N[C@@H](CCCNC(=N)N)C(=O)N[C@@H](CCCCN)C(=O)N[C@@H](CCC(=O)O)C(=O)N[C@H](C(N)=O)[C@@H](C)CC)CSSC[C@H](NC(=O)[C@H](C)NC(=O)[C@H](CCCNC(=N)N)NC(=O)[C@H](CCCCN)NC(=O)[C@H](CO)NC(=O)[C@H](CC(=O)O)NC3=O)C(=O)N2", "note": "[compound 395]", "values": [{"measurement": "IC50", "setting": "[2]", "value": 15.9, "unit": "nM"}, {"measurement": "potency relative to wild type peptide, in words", "setting": "[2]; TTX-sensitive current in mouse DRG neurons", "value": "equipotent"}, {"measurement": "Cmax", "setting": "in vivo [3]", "value": 730, "unit": "nM"}, {"measurement": "half-life", "setting": "in vivo [3]", "value": "~2.3", "unit": "h"}, {"measurement": "IC50", "setting": "hNav1.7 [4]; Table 15", "value": 0.779, "unit": "nM"}, {"measurement": "Cmax", "setting": "in vivo [5]; 1 mg/kg", "value": 79, "unit": "nM"}, {"measurement": "Tmax", "setting": "in vivo [5]; 1 mg/kg", "value": 1, "unit": "h"}, {"measurement": "Cmax", "setting": "in vivo [5]; 3 mg/kg", "value": 430, "unit": "nM"}, {"measurement": "Tmax", "setting": "in vivo [5]; 3 mg/kg", "value": 3, "unit": "h"}, {"measurement": "Cmax", "setting": "in vivo [5]; 10 mg/kg", "value": 970, "unit": "nM"}, {"measurement": "Tmax", "setting": "in vivo [5]; 10 mg/kg", "value": 3, "unit": "h"}, {"measurement": "IC50", "setting": "[1]", "value": 9.25, "unit": "nM"}, {"measurement": "mean Cmax over the mouse DRG Nav1.7 IC50", "setting": "[6]", "value": 46, "unit": "fold"}, {"measurement": "mean Cmax over the rat DRG Nav1.7", "setting": "[7]; 1 mg/kg s.c.", "value": 56, "unit": "fold"}, {"measurement": "mean Cmax over the rat DRG Nav1.7", "setting": "[7]; 3 mg/kg s.c.", "value": 306, "unit": "fold"}, {"measurement": "mean Cmax over the rat DRG Nav1.7", "setting": "[7]; 10 mg/kg s.c.", "value": 684, "unit": "fold"}, {"measurement": "tolerability", "setting": "[7]; Sprague-Dawley rats, 1, 3 or 10 mg/kg single s.c. administration", "value": "All the doses were tolerated"}, {"measurement": "Nav1.5/Nav1.7", "setting": "hNav1.5", "value": 256}, {"measurement": "Nav1.6/Nav1.7", "setting": "hNav1.6", "value": 94}, {"measurement": "IC50", "setting": "hNav1.6", "value": 73.2, "unit": "nM"}]}
{"smiles": "C#CC[C@H](N)C(=O)N[C@@H](Cc1ccc(O)cc1)C(=O)N[C@H]1CSSC[C@@H]2NC(=O)[C@@H]3CSSC[C@@H](C(=O)N[C@@H](CCCNC(=N)N)C(=O)N[C@@H](CCCCN)C(=O)N[C@H](C(=O)N[C@H](C(N)=O)[C@@H](C)CC)[C@@H](C)CC)NC(=O)[C@H](Cc4c[nH]c5ccccc45)NC(=O)[C@H](CC(C)C)NC(=O)[C@H](CCCCN)NC(=O)[C@H](CSSC[C@H](NC(=O)[C@H]([C@@H](C)O)NC(=O)[C@H](Cc4c[nH]c5ccccc45)NC(=O)[C@H](CCCC)NC(=O)[C@H](Cc4c[nH]c5ccccc45)NC(=O)[C@H](CCCCN)NC(=O)[C@H](CCC(N)=O)NC1=O)C(=O)N[C@@H](CC(=O)O)C(=O)N[C@@H](CO)C(=O)N[C@@H](CCCCN)C(=O)N[C@@H](CCCNC(=N)N)C(=O)N[C@@H](C)C(=O)N3)NC(=O)[C@H](CCCNC(=N)N)NC(=O)[C@H](CC(C)C)NC(=O)CNC(=O)[C@H](CCC(=O)O)NC2=O", "note": "[compound 425]", "values": [{"measurement": "IC50", "setting": "[2]", "value": 5.35, "unit": "nM"}, {"measurement": "inhibition of TTX-sensitive sodium current, in words", "setting": "[2]; 1 nM as printed, mouse DRG neurons", "value": "almost complete inhibition"}, {"measurement": "block of TTX-sensitive Nav current, in words", "setting": "[2]; 100 nM", "value": "blocked most TTX-sensitive Nav current"}, {"measurement": "fold more potent than JzTx-V in inhibition of TTX-sensitive current", "setting": "[2]; mouse DRG neurons", "value": "about 3 fold"}, {"measurement": "1.x/1.7", "setting": "[2]", "value": 6335}, {"measurement": "IC50", "setting": "hNav1.7 [4]; Table 15", "value": 1.2, "unit": "nM"}, {"measurement": "block of hNav1.7 current, in words", "setting": "hNav1.7 [8]; held at −77 mV, partially inactivated state", "value": "fully blocked Nav1.7 current; also recorded: complete inhibition"}, {"measurement": "block of hNav1.7 current, in words", "setting": "hNav1.7 [8]; held at −140 mV, fully non-inactivated state", "value": "fully blocked Nav1.7 current; also recorded: complete inhibition"}, {"measurement": "improvement in hNav1.7 potency over wild type JzTx-V", "setting": "hNav1.7 [8]; WCPC format", "value": "~200 fold and 190 fold"}, {"measurement": "1.x/1.7", "setting": "hNav1.7 [8]; fully non-inactivated", "value": 1}, {"measurement": "1.x/1.7", "setting": "hNav1.7 [8]; partially inactivated", "value": 1}, {"measurement": "Nav1.6/Nav1.7", "setting": "hNav1.6", "value": 57}, {"measurement": "IC50", "setting": "hNav1.6", "value": 67.9, "unit": "nM"}]}
{"smiles": "C#CC[C@H](N)C(=O)N[C@@H](Cc1ccc(O)cc1)C(=O)N[C@H]1CSSC[C@@H]2NC(=O)[C@@H]3CSSC[C@@H](C(=O)N[C@@H](CCCNC(=N)N)C(=O)N[C@@H](CCCCN)C(=O)N[C@@H](CCC(=O)O)C(=O)N[C@H](C(N)=O)[C@@H](C)CC)NC(=O)[C@H](Cc4c[nH]c5ccc(Br)cc45)NC(=O)[C@H](CC(C)C)NC(=O)[C@H](CCCCN)NC(=O)[C@H](CSSC[C@H](NC(=O)[C@H]([C@@H](C)O)NC(=O)[C@H](Cc4c[nH]c5ccccc45)NC(=O)[C@H](CCCC)NC(=O)[C@H](Cc4c[nH]c5ccccc45)NC(=O)[C@H](CCCCN)NC(=O)[C@H](CCC(N)=O)NC1=O)C(=O)N[C@@H](CC(=O)O)C(=O)N[C@@H](CO)C(=O)N[C@@H](CCCCN)C(=O)N[C@@H](CCCNC(=N)N)C(=O)N[C@@H](C)C(=O)N3)NC(=O)[C@H](CCCNC(=N)N)NC(=O)[C@H](CC(C)C)NC(=O)CNC(=O)[C@H](CCC(=O)O)NC2=O", "note": "[compound 858]", "values": [{"measurement": "IC50", "setting": "[2]", "value": 3.8, "unit": "nM"}, {"measurement": "block of TTX-sensitive Nav current, in words", "setting": "[2]; 30 nM, C57 Black 6 mouse DRG neuron", "value": "blocks most of TTX-sensitive Nav current"}, {"measurement": "potency on TTX-S current in mDRG neurons, in words", "setting": "[2]; manual patch clamp", "value": "single digit-nanomolar inhibitor"}, {"measurement": "1.x/1.7", "setting": "[2]", "value": 29}, {"measurement": "IC50", "setting": "hNav1.7 [4]; Table 12, PatchXpress, tonic block", "value": 0.039, "unit": "nM"}, {"measurement": "IC50", "setting": "hNav1.7 [4]; Table 15", "value": 0.059, "unit": "nM"}, {"measurement": "block of hNav1.7 current", "setting": "hNav1.7 [8]; 100 nM", "value": "approximately 90%"}, {"measurement": "IC50", "setting": "hNav1.7 [8]; WCPC, partially inactivated, hNav1.7, n=2, read-out: Mean IC50", "value": 0.13, "unit": "nM"}, {"measurement": "potency against hNav1.7, in words", "setting": "hNav1.7 [8]; manual WCPC", "value": "sub-nanomolar potent inhibitor"}, {"measurement": "IC50", "setting": "hNav1.4; PatchXpress, tonic block, read-out: PX hNav1.4 Tonic IC50", "value": 40.4, "unit": "nM"}, {"measurement": "Nav1.4/Nav1.7", "setting": "hNav1.4; ratio of PX tonic IC50 values", "value": 1036}, {"measurement": "Nav1.6/Nav1.7", "setting": "hNav1.6", "value": 829}, {"measurement": "IC50", "setting": "hNav1.6", "value": 49.2, "unit": "nM"}]}
{"smiles": "Cc1cccc(C)c1OCC(C)N", "note": "(stereo not drawn) [mexilitine, reference compound]", "values": [{"measurement": "reversal of thermal hyperalgesia, positive control", "setting": "male CD-1 mice", "value": "sufficient to significantly reverse thermal hyperalgesia"}]}
